Data on ten compounds can be found in ChEMBL document CHEMBL2057163, “Pyridofuran substituted pyrimidine derivatives as HCV replication (replicase) inhibitors” (Bioorg Med Chem Lett, 2012).

The test system of one data set is Hepatitis C virus. Briefly: Antiviral activity against Hepatitis C virus 1b con1 infected in human hepatoma cells assessed as decrease in replicon RNA level after 3 days by RT-PCR analysis. In kind it is functional, organism-based, Hepacivirus hominis. The note with it: Con1, 72 h. For orientation: Replicon systems follow genome replication, usually without infectious particles.

Data set [1] can be described thus: Cytotoxicity against human hepatoma cells after 3 days by MTS assay. In kind it is cell-based. (In general: Tetrazolium assays rely on reduction of a dye to a coloured formazan, in cell work by metabolically active cells.)
Data set [2] is described as follows: Cytotoxicity against human hepatoma cells assessed as decrease in GAPDH RNA level after 3 days by RT-PCR analysis. Format: cell-based.
Data set [3] can be described thus: Selectivity ratio of CC50 for human hepatoma cells by MTS assay to EC50 for Hepatitis C virus 1b con1. In kind it is ADME. As to conditions: read-out: Ratio CC50/EC50.
A short description of data set [4]: AUC (0 to 6 hrs) in rat at 10 mg/kg, po. As to conditions: plasma. On the set-up: time < 6 hr, dose 10 mg/kg, route oral. In kind it is ADME, organism-based.
The subject of another data set is Liver. Briefly: Drug uptake in rat liver assessed per gram of tissue at 10 mg/kg, po measured at 6 hrs. In kind it is ADME, organism-based. On the set-up: dose 10 mg/kg, route oral. The note with it: in vivo.
A short description of data set [5]: Cytotoxicity against human hepatoma cells assessed as inhibition of [14C]thymidine incorporation after 3 days by scintillation proximity assay. Format: cell-based.
The nature of data set [6]: Oral bioavailability in rat at 10 mg/kg. As to conditions: in vivo. Format: ADME, organism-based.
A short description of data set [7]: Half life in rat at 10 mg/kg, po. The note with it: in vivo. Format: ADME, organism-based. On the set-up: dose 10 mg/kg, route oral.
A short description of data set [8]: Clearance in rat at 10 mg/kg, po. Format: ADME, organism-based. On the set-up: dose 10 mg/kg, route oral. The note with it: in vivo.
The nature of data set [9]: AUC in monkey at 3 mg/kg, po. In kind it is ADME, organism-based, Macaca mulatta. As to conditions: rhesus monkey, plasma. On the set-up: dose 3 mg/kg, route oral.
A short description of data set [10]: Oral bioavailability in monkey at 3 mg/kg. In kind it is ADME, organism-based, Macaca mulatta. The note with it: rhesus monkey, in vivo.
Data set [11] is described as follows: Half life in monkey at 3 mg/kg, po. Format: ADME, organism-based, Macaca mulatta. On the set-up: dose 3 mg/kg, route oral. As to conditions: rhesus monkey, in vivo.
A short description of data set [12]: Clearance in monkey at 3 mg/kg, po. Format: ADME, organism-based, Macaca mulatta. On the set-up: dose 3 mg/kg, route oral. As to conditions: rhesus monkey, in vivo.
Data set [13] in a line: AUC in dog at 3 mg/kg, po. Format: ADME, organism-based, Canis lupus familiaris. On the set-up: dose 3 mg/kg, route oral. As to conditions: plasma.
Data set [14] can be described thus: Oral bioavailability in dog at 3 mg/kg. In kind it is ADME, organism-based, Canis lupus familiaris. As to conditions: in vivo.
Data set [15] can be described thus: Half life in dog at 3 mg/kg, po. Format: ADME, organism-based, Canis lupus familiaris. On the set-up: dose 3 mg/kg, route oral. As to conditions: in vivo.
Data set [16] is described as follows: Clearance in dog at 3 mg/kg, po. As to conditions: in vivo. On the set-up: dose 3 mg/kg, route oral. Format: ADME, organism-based, Canis lupus familiaris.

As a reminder, the EC50 is the concentration giving half of the maximal effect. For orientation: CC50 means the concentration giving 50% cytotoxicity. In the case of `CNc1nc(Cl)c(-c2cc3cc(OC)nc(C)c3o2)c(N[C@@H]2C[C@H](CO)[C@@H](O)[C@H]2O)n1`, the EC50 in the data set with Hepatitis C virus was 0.02 µM. In addition, the CC50 at 72 h in data set [1] was 25 µM; in [2], greater than 25 µM. For the same compound, the selectivity ratio in data set [3] is greater than 1000.

What is called AUC(0-t) is exposure summed from dosing to a finite time, without extrapolation to infinity. The compound `COc1cc(CNc2nc(C)c(-c3cc4cc(OC)nc(C)c4o3)c(N[C@@H]3C[C@H](CO)[C@@H](O)[C@H]3O)n2)cc(OC)c1.Cl` returned an AUC(0-t) at 6 h in data set [4] of 0.5 µM·h. In the data set on Liver, the liver concentration is 178 ng/g.

In data set [4], `CCOc1cc2cc(-c3c(C)nc(NC)nc3N[C@@H]3C[C@H](CO)[C@@H](O)[C@H]3O)oc2c(C)n1.Cl` displayed an AUC(0-t) at 6 h of 1.4 µM·h. The compound also had a liver concentration with Liver of 238 ng/g.

`CCOc1cc2cc(-c3c(C)nc(NCC(C)(C)C)nc3N[C@@H]3C[C@H](CO)[C@@H](O)[C@H]3O)oc2c(C)n1.Cl` registered an AUC(0-t) at 6 h in [4] of 6.8 µM·h. This compound also registered a liver concentration in the data set with Liver of 2330 ng/g.

Consider `CCOc1cc2cc(-c3c(C)nc(Nc4ccccc4)nc3N[C@@H]3C[C@H](CO)[C@@H](O)[C@H]3O)oc2c(C)n1.Cl`, for which the AUC(0-t) at 6 h in [4] was 18.5 µM·h. This compound came in with a liver concentration in the data set on Liver of 8980 ng/g.

The bioavailability is the share of a dose that reaches the circulation, judged against a reference dose that is usually intravenous. Broadly, the half-life is the time needed for the level to fall by half in the phase considered. Broadly, the CL/F is the apparent clearance, not corrected for the fraction that reaches the circulation. One may read the AUC as the area under the concentration-time curve, a measure of exposure. As for `CCOc1cc2cc(-c3c(C)nc(NCC4CC4)nc3N[C@@H]3C[C@H](CO)[C@@H](O)[C@H]3O)oc2c(C)n1.Cl`, in data set [4], the AUC(0-t) at 6 h amounted to 45.5 µM·h. In the data set with Liver, this compound had a liver concentration of 10200 ng/g. Further, the CC50 at 72 h in [5] was 5 µM. Besides, the figures for the bioavailability in data set [6], in data set [10] and in data set [14] were 97%, 100% and 15%, respectively. Further, the results for the half-life in data set [7], in data set [11] and in [15] were 3.3 h, 2.8 h and 2.1 h, respectively. Moreover, the CL/F turned out to be 8 mL/min/kg in data set [8], 16 mL/min/kg in data set [12] and 9.5 mL/min/kg in [16]. Moreover, the figures for the AUC in data set [9] and in data set [13] were 10.2 µM·h and 1.6 µM·h, respectively.

On to `CCOc1cc2cc(-c3c(C)nc(NCCOC)nc3N[C@@H]3C[C@H](CO)[C@@H](O)[C@H]3O)oc2c(C)n1.Cl`, for which, in data set [4], the AUC(0-t) at 6 h came out at 1.1 µM·h. The liver concentration in the data set with Liver was 285 ng/g.

As to `CCOc1cc2cc(-c3c(C)nc(NCC(F)(F)F)nc3N[C@@H]3C[C@H](CO)[C@@H](O)[C@H]3O)oc2c(C)n1.Cl`, the exposure AUC(0-t) at 6 h in data set [4] is 8.9 µM·h. In the data set with Liver, the liver concentration was found to be 3020 ng/g.

For `CCOc1cc2cc(-c3c(C)nc(NCc4cc(OC)cc(OC)c4)nc3N[C@@H]3C[C@H](CO)[C@@H](O)[C@H]3O)oc2c(C)n1.Cl`, the AUC(0-t) at 6 h in data set [4] came to 0.35 µM·h. This compound returned a liver concentration with Liver of 238 ng/g.

Consider `CCc1cc2cc(-c3c(C)nc(NCC(F)(F)F)nc3N[C@@H]3C[C@H](CO)[C@@H](O)[C@H]3O)oc2cn1.Cl`, for which the AUC(0-t) at 6 h in data set [4] is 5.3 µM·h. The liver concentration in the data set with Liver is 1730 ng/g. Further, in [5], the 50% cytotoxic concentration (CC50) at 72 h is 4 µM. The bioavailability in [6] was found to be 39%; in data set [10] it was 69%; in [14] it was 83%. Moreover, the half-life was 4.2 h in [7], 7 h in data set [11] and 2.1 h in [15]. Besides, the CL/F in [8] was 27 mL/min/kg; in data set [12] it was 15 mL/min/kg; in [16], 13 mL/min/kg. The AUC in data set [9] was determined as 5.2 µM·h; in data set [13], 6.4 µM·h.
